In the supplement of paper PMC10307832:

Tests used:
Experiment in all cases: relative viability (nuclei count vs DMSO), 5 days (fraction); higher = more cells survive
[1] = compound: C1COCCN1C2=NC(=NC3=C2OC4=C3C=CC=N4)C5=CC(=CC=C5)NC(=O)C6=CN=C(C=C6)N + CC(=O)c1c(C)c2cnc(Nc3ccc(N4CCNCC4)cn3)nc2n(C2CCCC2)c1=O [Palbociclib] (partner 0.5 µM)
Procedure, shortened: (§1)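 For relative viability, nuclei counts in treated wells were divided by those in vehicle wells. Lung cancer cell lines had been pin-tool dosed in 1536-well plates the day after seeding and cultured for 5 days, then fixed and stained in one step (final 0.05% Triton X-100, 1% formaldehyde, 1 ug/ml Hoechst) and imaged at 4×. Doses were one drug alone or a fixed anchor-drug dose plus five library-drug doses (not always all listed) in √10 steps, and values are duplicate-plate medians.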

[2] = compound: C1COCCN1C2=NC(=NC3=C2OC4=C3C=CC=N4)C5=CC(=CC=C5)NC(=O)C6=CN=C(C=C6)N + CC(C)C[C@H](NC(=O)[C@H](Cc1ccccc1)NC(=O)c1cnccn1)B(O)O [Bortezomib] (partner 0.002 µM)
Procedure, shortened: as §1

[3] = compound: C1COCCN1C2=NC(=NC3=C2OC4=C3C=CC=N4)C5=CC(=CC=C5)NC(=O)C6=CN=C(C=C6)N + Cc1nc(Nc2ncc(C(=O)Nc3c(C)cccc3Cl)s2)cc(N2CCN(CCO)CC2)n1 [Dasatinib] (partner 0.075 µM)
Procedure, shortened: as §1

Entinostat + Phenformin = compound: Nc1ccccc1NC(=O)c1ccc(CNC(=O)OCc2cccnc2)cc1 [Entinostat] + N=C(N)NC(=N)NCCc1ccccc1 [Phenformin] (partner 250 µM)
Procedure, shortened: as §1

Question: UMC-11 was tested. Which relative viability ([1]; first compound 0.02 µM) did it give?
Answer: 0.347

Question: And the relative viability ([1]; first compound 0.06325 µM)?
Answer: 0.327

Question: And the relative viability ([1]; first compound 0.2 µM)?
Answer: 0.344

Question: What about the relative viability ([1]; first compound 0.6325 µM) of the same cell line?
Answer: 0.324

Question: What about the relative viability ([1]; first compound 2 µM) of the same cell line?
Answer: 0.265

Question: And the relative viability ([2]; first compound 0.02 µM)?
Answer: 0.79

Question: What about the relative viability ([2]; first compound 0.06325 µM) of the same cell line?
Answer: 0.838

Question: What about the relative viability ([2]; first compound 0.2 µM) of the same cell line?
Answer: 0.669

Question: And the relative viability ([2]; first compound 0.6325 µM)?
Answer: 1.08

Question: And the relative viability ([2]; first compound 2 µM)?
Answer: 0.519

Question: What about the relative viability ([3]; first compound 0.02 µM) of the same cell line?
Answer: 0.454

Question: And the relative viability ([3]; first compound 0.06325 µM)?
Answer: 0.519

Question: And the relative viability ([3]; first compound 0.2 µM)?
Answer: 0.514

Question: What about the relative viability ([3]; first compound 0.6325 µM) of the same cell line?
Answer: 0.527

Question: And the relative viability ([3]; first compound 2 µM)?
Answer: 0.266

Question: What about the relative viability (Entinostat + Phenformin; first compound 0.02 µM) of the same cell line?
Answer: 0.307

Question: And the relative viability (Entinostat + Phenformin; first compound 0.06325 µM)?
Answer: 0.334

Question: What about the relative viability (Entinostat + Phenformin; first compound 0.2 µM) of the same cell line?
Answer: 0.347

Question: What about the relative viability (Entinostat + Phenformin; first compound 0.6325 µM) of the same cell line?
Answer: 0.21

Question: What about the relative viability (Entinostat + Phenformin; first compound 2 µM) of the same cell line?
Answer: 0.188
